Data reported in PMC12519464, “Dual-Site Inhibition of SARS-CoV‑2 RNA-Dependent RNA Polymerase by Small Molecules Able to Block Viral Replication Identified through a Computer-Aided Drug Discovery Approach” (ACS Infectious Diseases, 2025).
Read-outs that look alike come from different tables or passages of the source.

Target: SARS-CoV-2 nsp12/7/8 (RTC) complex (Severe acute respiratory syndrome coronavirus 2, UniProt P0DTD1)
Assay: biochemical
Assay type: biochemical
[1] = read-out: IC50: compound concentration required to inhibit by 50% the SARS-CoV-2 RTC enzymatic activity
[2] = primer-extension PAGE assay, 150 nM RTC, 5% DMSO, 30 min preincubation at 37 °C, mean and SD of at least 3 independent experiments

Compound	IC50	IC50 [1]	further results
C[C@@H]1O[C@@H](O[C@H]2CC[C@]3(C=O)[C@H]4CC[C@]5(C)[C@@H](c6ccc(=O)oc6)CC[C@]5(O)[C@@H]4CC[C@]3(O)C2)[C@H](O)[C@H](O)[C@H]1O[C@@H]1O[C@H](CO)[C@@H](O)[C@H](O)[C@H]1O [Hellebrin]	> 100 µM		
C[C@H]1CC[C@@H]2N(C1)C[C@H]1[C@@H]3C[C@H]4[C@@H](CC(=O)[C@H]5C[C@@H](O[C@@H]6O[C@H](CO)[C@@H](O)[C@H](O)[C@H]6O)CC[C@@]54C)[C@@H]3CC[C@H]1[C@]2(C)O [Imperialine 3-beta-D-glucoside]		> 100 µM	
CC(C)=CCc1c(-c2ccc(O)cc2O)oc2c([C@H]3C=C(C)C[C@@H](c4ccc(O)cc4O)[C@@H]3C(=O)c3ccc(O)cc3O)c(O)cc(O)c2c1=O [Kuwanon G]		41 ± 6.18 µM	
CC(C)=CCc1c(O)ccc(C(=O)[C@@H]2[C@@H](c3c(O)cc(O)c4c(=O)c(CC=C(C)C)c(-c5ccc(O)cc5O)oc34)C=C(C)C[C@H]2c2ccc(O)cc2O)c1O [Kuwanon H]		66.2 ± 1.81 µM	
CN1C(=O)c2c(nn(Cc3ccc(-c4cccc(F)n4)cc3)c2Nc2ccccc2)N2C1=N[C@@H]1CCC[C@@H]12 [Lenrispodun, reference compound]			IC50 [2]: 24.2 ± 8.68 µM
CS(=O)(=O)c1cccc(C[C@H](NC(=O)c2c(Cl)cc3c(c2Cl)CCN(C(=O)c2ccc4ccoc4c2)C3)C(=O)O)c1 [Lifitegrast, reference compound]			IC50 [2]: > 100 µM
C[C@]1(O)C[C@@H](c2nc(-c3ccc4ccc(-c5ccccc5)nc4c3)c3c(N)nccn32)C1 [Linsitinib, reference compound]	> 100 µM		
Cc1ccc(F)cc1C(=O)Nc1ccc(C(=O)N2Cc3cccn3Cc3ccccc32)c(Cl)c1 [Lixivaptan, reference compound]			IC50 [2]: > 100 µM
C=C(C)[C@@H]1CC[C@]2(C)CC[C@]3(C)[C@H](CC[C@@H]4[C@@]5(C)CCC(=O)C(C)(C)[C@@H]5CC[C@]43C)[C@@H]12 [Lupenone]	> 100 µM		
C=C(C)[C@@H]1CC[C@]2(C)CC[C@]3(C)[C@H](CC[C@@H]4[C@@]5(C)CC[C@H](OC(C)=O)C(C)(C)[C@@H]5CC[C@]43C)[C@@H]12 [Lupeol Acetate]		> 100 µM	
C=C(C)[C@@H]1CC[C@]2(C)CC[C@]3(C)[C@H](CC[C@@H]4[C@@]5(C)CC[C@H](O)C(C)(C)[C@@H]5CC[C@]43C)[C@@H]12 [Lupeol]	> 100 µM		
C[C@H]1[C@H](C)CC[C@]2(C(=O)O)CC[C@]3(C)C(=CC[C@@H]4[C@@]5(C)C[C@@H](O)[C@H](O)[C@@](C)(CO)[C@@H]5[C@H](O)C[C@]43C)[C@H]12 [Madecassic Acid]	> 100 µM		
CC1(C)CC[C@]2(C(=O)O)CC[C@]3(C)C(=CC[C@@H]4[C@@]5(C)C[C@@H](O)[C@H](O)C(C)(C)[C@@H]5CC[C@]43C)[C@@H]2C1 [Maslinic Acid]	> 100 µM		
COc1cccc(OC)c1-c1cc(C(=O)NC2(C(=O)O)C3CC4CC(C3)CC2C4)nn1-c1ccnc2cc(Cl)ccc12 (centres unmarked) [Meclinertant, reference compound]			IC50 [2]: 15.4 ± 2.77 µM
Cc1ccc(C(=O)Nc2ccc(Oc3cc4cnn(C)c4cc3-c3cn[nH]c3)c(F)c2)c(=O)n1-c1ccc(F)cc1 [Merestinib, reference compound]			IC50 [2]: > 100 µM
C[C@H](CC[C@@H](O[C@@H]1O[C@H](CO)[C@@H](O)[C@H](O)[C@H]1O)C(C)(C)O)[C@H]1CC[C@@]2(C)[C@@H]3CC=C4[C@@H](CC[C@H](O[C@@H]5O[C@H](CO)[C@@H](O)[C@H](O)[C@H]5O)C4(C)C)[C@]3(C)[C@H](O)C[C@]12C [Mogroside IIe]		> 100 µM	
CC[C@@]1([C@@H]2O[C@@H]([C@H]3O[C@@](O)(CO)[C@H](C)C[C@@H]3C)C[C@@H]2C)CC[C@H]([C@]2(C)CC[C@]3(C[C@H](O)[C@@H](C)[C@@H]([C@@H](C)[C@@H](OC)[C@H](C)C(=O)O)O3)O2)O1 [Monensin]	> 100 µM		
CC#C/C(=N/OC[C@H]1COCCN1)c1ccc2ncnc(Nc3ccc(OCc4cccc(F)c4)c(Cl)c3)c2c1 [N-[3-chloro-4-[(3-fluorophenyl)methoxy]phenyl]-6-[(E)-N-[[(3R)-morpholin-3-yl]methoxy]-C-prop-1-ynylcarbonimidoyl]quinazolin-4-amine, reference compound]		> 100 µM	
O=C(NCC(O)CNC(=O)/C(=C\c1ccco1)NC(=O)c1ccccc1)/C(=C\c1ccco1)NC(=O)c1ccccc1 [N-[(E)-3-[[3-[[(E)-2-benzamido-3-(furan-2-yl)prop-2-enoyl]amino]-2-hydroxypropyl]amino]-1-(furan-2-yl)-3-oxoprop-1-en-2-yl]benzamide]		90.1 ± 14 µM	
CC1(C)CC[C@]2(C(=O)O)CC[C@]3(C)C(=CC[C@@H]4[C@@]5(C)CC[C@H](O[C@@H]6O[C@H](C(=O)O)[C@@H](O[C@@H]7O[C@@H](CO)[C@H](O)[C@H]7O)[C@H](O)[C@H]6O)C(C)(C)[C@@H]5CC[C@]43C)[C@@H]2C1 [Narcissiflorine]		17.2 ± 5.96 µM	
CC1(C)CC[C@]2(NC(=O)C(C)(F)F)CC[C@]3(C)[C@H](C(=O)C=C4[C@@]5(C)C=C(C#N)C(=O)C(C)(C)[C@@H]5CC[C@]43C)[C@@H]2C1 [Omaveloxolone, reference compound]			IC50 [2]: 13 ± 4.28 µM

Compound	IC50	IC50 [1]	further results
O=C(c1cccc(-c2nc3ccccc3[nH]2)n1)N1CCN(C(=O)c2cccc(-c3nc4ccccc4[nH]3)n2)CC1 [Omilancor, reference compound]	> 100 µM		
C=C(CC[C@@H](C(=O)O)[C@H]1[C@H](O)C[C@@]2(C)C3=C(CC[C@]12C)[C@@]1(C)CC[C@H](OC(C)=O)C(C)(C)[C@@H]1CC3)C(C)C [Pachymic acid]	> 100 µM		
Cc1cnc(C(=O)N[C@H]2CCCCC/C=C\[C@@H]3C[C@@]3(C(=O)NS(=O)(=O)C3CC3)NC(=O)[C@@H]3C[C@@H](Oc4nc5ccccc5c5ccccc45)CN3C2=O)cn1 [Paritaprevir, reference compound]			IC50 [2]: 42.2 ± 9.97 µM
CC1=C2C[C@H]3[C@@H](CC(=O)[C@H]4C[C@@H](O)CC[C@@]43C)[C@@H]2CC[C@]12O[C@@H]1C[C@H](C)CN[C@H]1[C@H]2C [Peimisine]		> 100 µM	
C[C@@H]1CC[C@]2(C(=O)O)CC[C@]3(C)C(=CC[C@@H]4[C@@]5(C)CC[C@H](O)C(C)(C)[C@@H]5CC[C@]43C)[C@@H]2[C@]1(C)O [Pomolic acid]	> 100 µM		
C[C@@H]1CC[C@@]2(OC1)O[C@H]1C[C@H]3[C@@H]4CC=C5C[C@@H](O[C@@H]6O[C@H](CO)[C@@H](O)[C@H](O)[C@H]6O[C@@H]6O[C@@H](C)[C@H](O)[C@@H](O)[C@H]6O)CC[C@]5(C)[C@H]4CC[C@]3(C)[C@H]1[C@@H]2C [Prosapogenin A]		> 100 µM	
CC1(C)CC[C@]2(C(=O)O[C@@H]3O[C@H](CO)[C@@H](O)[C@H](O)[C@H]3O)CC[C@]3(C)C(=CC[C@@H]4[C@@]5(C)CC[C@H](O[C@@H]6O[C@H](C(=O)O)[C@@H](O)[C@H](O)[C@H]6O[C@@H]6OC[C@@H](O)[C@H](O)[C@H]6O)C(C)(C)[C@@H]5CC[C@]43C)[C@@H]2C1 [Pseudoginsenoside Rt1]	49.3 ± 5.86 µM		
CC(C)(O)[C@H]1CC[C@@](C)([C@H]2CC[C@]3(C)[C@@H]2[C@H](O)C[C@@H]2[C@@]4(C)CC[C@H](O)C(C)(C)[C@@H]4[C@@H](O[C@@H]4O[C@H](CO)[C@@H](O)[C@H](O)[C@H]4O)C[C@]23C)O1 [Pseudoginsenoside Rt5]		> 100 µM	
C=C(C)[C@@H]1CC[C@]2(C(=O)O)CC[C@]3(C)[C@H](CC[C@@H]4[C@@]5(C)CC[C@H](O[C@@H]6OC[C@H](O)[C@H](O)[C@H]6O[C@@H]6O[C@@H](C)[C@H](O)[C@@H](O)[C@H]6O)[C@@](C)(CO)[C@@H]5CC[C@]43C)[C@@H]12 [Pulchinenoside A]		24.7 ± 0.42 µM	
CC1(C)CC[C@]2(C(=O)O)[C@H](O)C[C@]3(C)C(=CC[C@@H]4[C@@]5(C)CC[C@H](O)[C@@](C)(C=O)[C@@H]5CC[C@]43C)[C@@H]2C1 [Quillaic acid]	83.9 ± 9.31 µM		
CO[C@H]1/C=C/O[C@@]2(C)Oc3c(C)c(O)c4c(O)c(c5c(nc6cc(C)ccn65)c4c3C2=O)NC(=O)/C(C)=C\C=C\[C@H](C)[C@H](O)[C@@H](C)[C@@H](O)[C@@H](C)[C@H](OC(C)=O)[C@@H]1C [Rifaximin, reference compound]			IC50 [2]: > 100 µM
C[C@@H]1CC[C@]2(C(=O)O)CC[C@]3(C)C(=CC[C@@H]4[C@@]5(C)CC[C@H](O)[C@@](C)(CO)[C@@H]5CC[C@]43C)[C@@H]2[C@]1(C)O [Rotundic acid]			IC50 [2]: > 100 µM
COc1ccc2cc(S(=O)(=O)N[C@H](CC(=O)N[C@H](Cc3ccc(CN4[C@H](C)CCC[C@@H]4C)cc3)C(=O)N(C)C(C)C)c3ccc4c(c3)OCO4)ccc2c1 [SSR240612, reference compound]		85.9 ± 4.35 µM	
C[C@H]1O[C@@H](O[C@H]2CC[C@@]3(C)[C@@H](CC[C@]4(C)[C@@H]3C=CC3=C5CC(C)(C)CC[C@]5(CO)[C@H](O)C[C@]34C)[C@]2(C)CO)[C@H](O)[C@@H](O[C@@H]2O[C@H](CO)[C@@H](O)[C@H](O)[C@H]2O)[C@H]1O [Saikosaponin B2]		54.6 ± 13.6 µM	
C[C@H]1O[C@@H](O[C@H]2CC[C@@]3(C)[C@@H](CC[C@]4(C)[C@@H]3C=C[C@]35OC[C@@]6(CCC(C)(C)C[C@H]63)[C@H](O)C[C@]54C)[C@]2(C)CO)[C@H](O)[C@@H](O[C@@H]2O[C@H](CO)[C@@H](O)[C@H](O)[C@H]2O)[C@H]1O [Saikosaponin D]		> 100 µM	
CC1(C)CC[C@]2(C(=O)O)CCC3=C([C@@H](CCl)C[C@@H]4[C@@]5(C)C[C@H](O)[C@H](O)[C@@](C)(C(=O)O)[C@@H]5CC[C@@]34C)[C@@H]2C1 [Senegenin]		> 100 µM	
C[C@@H]1CC[C@@]2(OC1)O[C@H]1C[C@H]3[C@@H]4CC[C@@H]5C[C@@H](O)CC[C@]5(C)[C@H]4CC[C@]3(C)[C@H]1[C@@H]2C [Smilagenin, reference compound]		> 100 µM	
CNc1cccc(NC(=O)N[C@@H]2N=C(c3ccccn3)c3ccccc3N(CC(=O)C(C)(C)C)C2=O)c1 [Sograzepide, reference compound]			IC50 [2]: > 100 µM
C=CC(=O)N1CCN(c2nc(=O)n(-c3c(C)ccnc3C(C)C)c3nc(-c4c(O)cccc4F)c(F)cc23)[C@@H](C)C1 [Sotorasib, reference compound]			IC50 [2]: 47 ± 10.6 µM
CN(C(=O)c1ccc(F)cc1C(F)(F)F)C1CCN(c2nnc(-c3ccnn3C)c3ccccc23)CC1 [Taladegib, reference compound]	> 100 µM		
